Measurements reported in US12540148B2, “Lipophosphonoxins, their preparation and use” (USTAV ORGANICKE CHEMIE A BIOCHEMIE AV CR, V. V. I., priority 2019, dated 2026).
≈ marks a conversion by molar mass, not a printed value. Where a name gives a salt, the structure may show the parent alone. Read-outs that look alike come from different tables or passages of the source.

Columns and labels:
Assay type in all cases: cell-based
[1] = tested on: Enterococcus faecium 419/ANA; assay: MIC, microdilution method
Protocol: (§1) Disposable microtiter plates are used for testing. Samples are dissolved in infusion medium from brain and heart (BHI, HiMedia Laboraties Pvt. Ltd., Czech Republic) and Mueller-Hinton broth (HiMedia Laboraties, see above) to a final concentration ranging from 200 μg/ml to 1.5625 μg/ml. Plates are inoculated with a standard amount of test bacteria—the density of the inoculum in the well corresponds to 10^5-6 CFU/ml (colony forming units/ml, i.e. the number of viable bacterial cells/ml). MIC values are read after 24/48 hours of incubation at 37° C. as the minimum inhibitory concentration of the test substance at which bacterial growth is inhibited. The minimum bactericidal concentration (MBC) is characterized as the minimum concentration of the sample required to achieve irreversible inhibition, i.e. to kill the bacteria after a defined incubation period. MBC is determined by the inoculation method. Using an applicator, 10 μl from the well of a microtiter plate with a defined concentration of the test substance is taken to inoculate the surface of blood agar (Trios, Czech Republic). MBC is determined as the lowest concentration that inhibits the visible growth of the bacterium used on agar.

[2] = tested on: Staphylococcus epidermidis CCM 7221; assay: MIC, microdilution method
Protocol: as §1

[3] = tested on: Enterococcus faecalis ATCC 29212 = CCM 4224; assay: MIC, microdilution method
Protocol: as §1

[4] = tested on: Staphylococcus aureus ATCC 29213 = CCM 4223; assay: MIC, microdilution method
Protocol: as §1

[5] = tested on: Staphylococcus aureus 4591; assay: MIC, microdilution method
Protocol: as §1

[6] = tested on: Escherichia coli ATCC 25922 = CCM 3954; assay: MIC, microdilution method
Protocol: as §1

Escherichia coli CE5556 = assay: MIC, microdilution method
Protocol: as §1

Enterobacter kobei 3683 = assay: MIC, microdilution method
Protocol: as §1

Pseudomonas aeruginosa R = assay: MIC, microdilution method
Protocol: as §1

[7] = tested on: Pseudomonas aeruginosa ATCC 27853 = CCM 3955; assay: MIC, microdilution method
Protocol: as §1

[8] = tested on: Candida albicans ATCC 90028 = CCM 8161; assay: MIC, microdilution method
erythrocytes = assay: Haemolytic activity of soluble samples
Protocol: Blood from three donors is mixed and centrifuged (10 min, 1000 g, 4° C.). The erythrocytes obtained are washed three times with NaCl solution (150 mmol·l^−1) and then used for experiments. Sample stock solutions are prepared in DMSO so that the final concentration of DMSO in NaCl is 0.5% (v/v). NaCl solution with the appropriate volume of DMSO serves as the negative control. 1% Triton-X100 is the positive control. The erythrocytes obtained are diluted to 2% with NaCl solution and pipetted into Eppendorf tubes (250 μl) with constant stirring. Samples and positive and negative controls are added to the erythrocytes prepared in this way and incubated (3 hours, 37° C.). The tubes are stirred during the incubation. After centrifugation (5 min, 1000 g), haemolytic activity is monitored by haemoglobin determination. The HC50 value is calculated from the measured absorbance values. The test is performed in triplets in three independent replicates. Iron Fe^2+ in haemoglobin is oxidized with potassium ferricyanide to iron Fe^3+ in methaemoglobin, which produces stable cyanomethaemoglobin with potassium cyanide, the concentration of which is determined spectrophotometrically. After the incubation of the erythrocytes with the substances, the cells are centrifuged (5 min, 1000 g), then Drabkin's solution (200 μl) is added to the supernatant (40 μl) and after incubation (10 min), the absorbance at 540 nm is measured.

[9] = Staphylococcus epidermidis, CCM7221

| Molecule | MIC ([1]; Enterococcus faecium, 419/ANA) | MIC [2, 9] | MIC ([3]; Enterococcus faecalis) | MIC ([4]; Staphylococcus aureus) | MIC ([5]; Staphylococcus aureus, 4591) | MIC ([6]; Escherichia coli) | MIC (Escherichia coli CE5556; Escherichia coli, CE5556) | MIC (Enterobacter kobei 3683; Enterobacter kobei, 3683) | MIC (Pseudomonas aeruginosa R; Pseudomonas aeruginosa) | MIC ([7]; Pseudomonas aeruginosa) | MIC ([8]; Candida albicans) | HC50 ± SD (erythrocytes) | also measured |
| --- | --- | --- | --- | --- | --- | --- | --- | --- | --- | --- | --- | --- | --- |
| CC(C)COP(=O)(CCN(CCCN)CCCN)OCCCCCCCCCCOP(=O)(CCN(CCCN)CCCN)OCC(C)C (centres unmarked) [Example 40, Diisobutyl decane-1,10-diyl bis((2-(bis(3-aminopropyl)amino)ethyl)-phosphonate) hexahydrochloride] | > 128 mg/L | 4 mg/L | 128 mg/L | 16 mg/L | 8 mg/L | > 128 mg/L | > 128 mg/L | > 128 mg/L | > 128 mg/L | > 128 mg/L | 128 mg/L | >100 | – |
| CC(C)COP(=O)(CCN(CCCN)CCCN)OCCCCCCCCCCCCOP(=O)(CCN(CCCN)CCCN)OCC(C)C (centres unmarked) [Example 46, Dodecane-1,12-diyl diisobutyl bis((2-(bis(3-aminopropyl)amino)ethyl)-phosphonate) hexahydrochloride] | > 128 mg/L | 1 mg/L | 32 mg/L | 4 mg/L | 4 mg/L | 128 mg/L | > 128 mg/L | > 128 mg/L | 16 mg/L | 32 mg/L | 64 mg/L | >100 | – |
| CCCCCOP(=O)(CCN(CCCN)CCCN)OCCCCCCCCCCCCOP(=O)(CCN(CCCN)CCCN)OCCCCC (centres unmarked) [Example 48, Dodecane-1,12-diyl dipentyl bis((2-(bis(3-aminopropyl)amino)ethyl)-phosphonate) hexahydrochloride] | 1 mg/L | 0.5 mg/L | 1 mg/L | 1 mg/L | 1 mg/L | 1 mg/L | 1 mg/L | 1 mg/L | 2 mg/L | 2 mg/L | 2 mg/L | 4 | – |
| NCCCN(CCCN)CCP(=O)(OCCCCCCCCCCCCOP(=O)(CCN(CCCN)CCCN)OCCc1ccccc1)OCCc1ccccc1 (centres unmarked) [Example 50] | 2 mg/L (≈ 2.34 µM) | 0.5 mg/L (≈ 0.586 µM) | 4 mg/L (≈ 4.69 µM) | 2 mg/L (≈ 2.34 µM) | 1 mg/L (≈ 1.17 µM) | 16 mg/L (≈ 18.8 µM) | 2 mg/L (≈ 2.34 µM) | 8 mg/L (≈ 9.38 µM) | 2 mg/L (≈ 2.34 µM) | 4 mg/L (≈ 4.69 µM) | 4 mg/L (≈ 4.69 µM) | >100 | – |
| CC(C)COP(=O)(CCN(CCCN)CCCN)OCCCCCCCCCCCCCCOP(=O)(CCN(CCCN)CCCN)OCC(C)C (centres unmarked) [Example 51, Tetradecane-1,14-diyl diisobutyl bis((2-(bis(3-aminopropyl)amino)ethyl)-phosphonate) hexahydrochloride] | 16 mg/L | 0.5 mg/L | 4 mg/L | 2 mg/L | 2 mg/L | 16 mg/L | 32 mg/L | 64 mg/L | 4 mg/L | 4 mg/L | 32 mg/L | >100 | – |
| CCCCCCOP(=O)(CCN(CCN)CCN)OCCCCCCCCOP(=O)(CCN(CCN)CCN)OCCCCCC (centres unmarked) [Example 55, Dihexyl octane-1,8-diyl bis((2-(bis(2-aminoethyl)amino)ethyl)phosphonate) hexahydrochloride] | > 128 mg/L | 2 mg/L | 128 mg/L | 2 mg/L | 4 mg/L | > 128 mg/L | > 128 mg/L | > 128 mg/L | 64 mg/L | 64 mg/L | 32 mg/L | >100 | – |
| CCCC/C=C\CCOP(=O)(CCN(CCCN)CCCN)OCCCCCCOP(=O)(CCN(CCCN)CCCN)OCC/C=C\CCCC (centres unmarked) [Example 57, Hexane-1,6-diyl di((Z)-oct-3-en-1-yl) bis((2-(bis(3-aminopropyl)amino)-ethyl)phosphonate) hexahydrochloride] | 64 mg/L | 0.5 mg/L | 16 mg/L | 1 mg/L | 1 mg/L | 2 mg/L | 2 mg/L | – | 16 mg/L | 16 mg/L | 64 mg/L | 34.8 | – |
| CCCC/C=C\CCOP(=O)(CCN(CCCN)CCCN)OCCCCCOP(=O)(CCN(CCCN)CCCN)OCC/C=C\CCCC (centres unmarked) [Example 58, Di((Z)-oct-3-en-1-yl) pentane-1,5-diyl bis((2-(bis(3-aminopropyl)amino)ethyl)-phosphonate) hexahydrochloride] | 4 mg/L | 2 mg/L | 2 mg/L | 0.5 mg/L | 128 mg/L | 8 mg/L | 4 mg/L | – | 32 mg/L | 32 mg/L | 64 mg/L | 70 | – |
| Dibutyl dodecane-1,12-diyl bis((2-(bis(3-aminopropyl)amino)ethyl)-phosphonate) hexahydrochloride [Example 47] | – | – | – | – | – | – | – | – | – | – | – | >100 | MIC [1]: 16 mg/L; MIC [2]: 0.5 mg/L; MIC [3]: 2 mg/L; MIC [4]: 1 mg/L; MIC [5]: 1 mg/L; MIC [6]: 16 mg/L; MIC (Escherichia coli CE5556): 32 mg/L; MIC (Enterobacter kobei 3683): 128 mg/L; MIC (Pseudomonas aeruginosa R; 24/48 hours at 37° C.): 4 mg/L; MIC [7]: 4 mg/L; MIC [8]: 16 mg/L |
| Dihexyl tetradecan-1,14-diyl bis((2-(bis(3-aminopropyl)amino)ethyl)-phosphonate) tetrahydrochloride [Example 54] | – | – | – | – | – | – | – | – | – | – | – | >100 | MIC [1]: 64 mg/L; MIC [2]: 0.5 mg/L; MIC [3]: 8 mg/L; MIC [4]: 1 mg/L; MIC [5]: 1 mg/L; MIC [6]: 4 mg/L; MIC (Escherichia coli CE5556): 16 mg/L; MIC (Enterobacter kobei 3683): >128 mg/L; MIC (Pseudomonas aeruginosa R; 24/48 hours at 37° C.): 8 mg/L; MIC [7]: 8 mg/L; MIC [8]: 16 mg/L |
| Dodecan-1,10-diyl dioctyl bis((2-(bis(3-aminopropyl)amino)ethyl)-phosphonate) tetrahydrochloride [Example 49] | – | – | – | – | – | – | – | – | – | – | – | >100 | MIC [1]: 32 mg/L; MIC [2]: 0.5 mg/L; MIC [3]: 4 mg/L; MIC [5]: 4 mg/L; MIC (Escherichia coli CE5556): 16 mg/L; MIC (Enterobacter kobei 3683): 128 mg/L; MIC (Pseudomonas aeruginosa R; 24/48 hours at 37° C.): 8 mg/L; MIC [7]: 8 mg/L; MIC [8]: 8 mg/L |
